Data reported in PMC10414684, “Novel integrated computational AMP discovery approaches highlight diversity in the helminth AMP repertoire” (PLOS Pathogens, 2023).
Converted amounts (≈) assume the structure as drawn. Where a name gives a salt, the structure may show the parent alone. No end group written: not given here.

Experiments:
E. faecalis JH2-2 = test: microbe, parasite or virus in culture; format: cell-based, Enterococcus faecalis
Procedure: (§1) Prioritised helminth AMP-LPs were synthesised at >70% purity (Genosphere Biotechnologies). […] Peptides and control antibiotics [Ciprofloxacin (for gram-negative species; Sigma-Aldrich) and Vancomycin hydrochloride (for gram-positive species; Sigma-Aldrich)] were dissolved in sterile ultrapure water at a concentration of 5.12mg/ml. Minimum inhibitory concentrations (MICs) were determined for gram-positive and gram-negative bacterial isolates (see Table 3 for species) using microbroth dilution assays as described previously. Briefly, a single colony from each bacterial species was inoculated in cation-adjusted Mueller Hinton Broth (MHB) and grown for 18–24 hours at 37°C with shaking (225rpm) before being adjusted to a final bacterial density of 5x10^5 colony forming units (CFU) per ml. Peptides and Vancomycin hydrochloride were diluted using sterile MHB in sterile U-bottom 96 well polypropylene microplates (Greiner Bio One, UK) to give a concentration gradient ranging from 512–0.25μg/ml. Ciprofloxacin was further diluted in sterile MHB to give a concentration gradient ranging from 32–0.02μg/ml. Microplates were incubated at 37°C for 18–24 hours. Plates were assessed for visible growth and the MIC was defined as the lowest concentration of peptide or antibiotic that inhibited visible growth of a bacterial culture after an 18–24-hour incubation. MIC data were validated by positive and negative control antibiotic MIC data for each bacterial isolate.

S. aureus RN4220 = test: microbe, parasite or virus in culture; format: cell-based, Staphylococcus aureus; conditions: for MIC S. aureus RN4220 (+): peptides and Vancomycin hydrochloride 512–0.25μg/ml, peptides >70% purity (Cecropin P1 >95%)
Procedure: as §1

S. aureus EMRSA-15 = test: microbe, parasite or virus in culture; format: cell-based, Staphylococcus aureus
Procedure: as §1

P. aeruginosa PA01 = test: Minimum inhibitory concentration, microbroth dilution; format: cell-based, Pseudomonas aeruginosa; conditions: 5x10^5 CFU/ml, 37°C, 18–24 h, visible growth; for MIC P. aeruginosa PA01 (-): cation-adjusted MHB, peptides 512–0.25μg/ml, >70% purity (Cecropin P1 >95%), Ciprofloxacin 32–0.02μg/ml
Procedure: as §1

E. coli K12 = test: as above; format: cell-based, Escherichia coli; conditions: 5x10^5 CFU/ml, 37°C, 18–24 h, visible growth; for MIC E. coli K12 (-): cation-adjusted MHB, peptides 512–0.25μg/ml, >70% purity (Cecropin P1 >95%), Ciprofloxacin 32–0.02μg/ml
Procedure: as §1

A. baumannii DSM 30007 = test: as above; format: cell-based, Acinetobacter baumannii; conditions: 5x10^5 CFU/ml, 37°C, 18–24 h, visible growth; for MIC A. baumannii DSM 30007 (-): cation-adjusted MHB, peptides 512–0.25μg/ml, >70% purity (Cecropin P1 >95%), Ciprofloxacin 32–0.02μg/ml
Procedure: as §1

[1] = microbroth dilution, cation-adjusted MHB, 5x10^5 CFU/ml, 37°C, 18–24 h, visible growth, peptides and Vancomycin hydrochloride 512–0.25μg/ml, peptides >70% purity (Cecropin P1 >95%)
[2] = Methicillin-Sensitive, microbroth dilution, cation-adjusted MHB, 5x10^5 CFU/ml, 37°C, 18–24 h, visible growth
[3] = Methicillin-resistant, microbroth dilution, cation-adjusted MHB, 5x10^5 CFU/ml, 37°C, 18–24 h, visible growth, peptides and Vancomycin hydrochloride 512–0.25μg/ml, peptides >70% purity (Cecropin P1 >95%)

Row | Molecule | MIC E. faecalis JH2-2 (+) (E. faecalis JH2-2; [1]) | MIC S. aureus RN4220 (+) (S. aureus RN4220; [2]) | MIC S. aureus EMRSA-15 (+) (S. aureus EMRSA-15; [3]) | MIC P. aeruginosa PA01 (-) (P. aeruginosa PA01) | MIC E. coli K12 (-) (E. coli K12) | MIC A. baumannii DSM 30007 (-) (A. baumannii DSM 30007) | also measured
1 | CN[C@H](CC(C)C)C(=O)N[C@H]1C(=O)N[C@@H](CC(N)=O)C(=O)N[C@H]2C(=O)N[C@H]3C(=O)N[C@H](C(=O)N[C@H](C(=O)O)c4cc(O)cc(O)c4-c4cc3ccc4O)[C@H](O)c3ccc(c(Cl)c3)Oc3cc2cc(c3O[C@@H]2O[C@H](CO)[C@@H](O)[C@H](O)[C@H]2O[C@H]2C[C@](C)(N)[C@H](O)[C@H](C)O2)Oc2ccc(cc2Cl)[C@H]1O [Vancomycin hydrochloride, reference compound] | 2 µg/mL | 1 µg/mL | 2 µg/mL | – | – | – | MIC (E. faecalis JH2-2; Enterococcus faecalis, JH22, read-out: MIC E. faecalis JH2-2 (+), μM in brackets): 1 µM; MIC (S. aureus RN4220; Staphylococcus aureus, RN4220, read-out: MIC S. aureus RN4220 (+), μM in brackets): 0.7 µM; MIC (S. aureus EMRSA-15; Staphylococcus aureus, EMRSA15, read-out: MIC S. aureus EMRSA-15 (+), μM in brackets): 1 µM
2 | O=C(O)c1cn(C2CC2)c2cc(N3CCNCC3)c(F)cc2c1=O [Ciprofloxacin, reference compound] | – | – | – | 0.5 µg/mL (≈ 1.51 µM) | 0.0625 µg/mL (≈ 0.189 µM) | 1 µg/mL (≈ 3.02 µM) | MIC (P. aeruginosa PA01; Pseudomonas aeruginosa, PA01, cation-adjusted MHB, read-out: MIC P. aeruginosa PA01 (-), μM in brackets): 2 µM (≈ 0.663 µg/mL); MIC (E. coli K12; Escherichia coli, K12, cation-adjusted MHB, read-out: MIC E. coli K12 (-), μM in brackets): 0.2 µM (≈ 0.0663 µg/mL); MIC (A. baumannii DSM 30007; Acinetobacter baumannii, DSM30007, cation-adjusted MHB, read-out: MIC A. baumannii DSM 30007 (-), μM in brackets): 3 µM (≈ 0.994 µg/mL)
3 | DGCPKRVAIAVLKAPYKIFKKEANKGLFKLADKIHGVRY [fAMP-LP-123, flatworm AMP-like peptide selected for synthesis and MIC screening] | / (/ indicates that there was no activity at the highest concentration of peptide used (512μg/ml)) | – | / (/ indicates that there was no activity at the highest concentration of peptide used (512μg/ml)) | / (/ indicates that there was no activity at the highest concentration of peptide used (512μg/ml)) | / (/ indicates that there was no activity at the highest concentration of peptide used (512μg/ml)) | / (/ indicates that there was no activity at the highest concentration of peptide used (512μg/ml)) | –
4 | FDKNLLKKGKKSSAYEKHPISRRVLRFE [nAMP-LP-764, nematode AMP-like peptide selected for synthesis and MIC screening] | / (/ indicates that there was no activity at the highest concentration of peptide used (512μg/ml)) | / (/ indicates that there was no activity at the highest concentration of peptide used (512μg/ml)) | / (/ indicates that there was no activity at the highest concentration of peptide used (512μg/ml)) | / (/ indicates that there was no activity at the highest concentration of peptide used (512μg/ml)) | / (/ indicates that there was no activity at the highest concentration of peptide used (512μg/ml)) | / (/ indicates that there was no activity at the highest concentration of peptide used (512μg/ml)) | –
5 | ISKFLKGAAIAGGLAVAGAVAYKAYKNYKKNQEQQAAATGRK [nAMP-LP-11, nematode AMP-like peptide selected for synthesis and MIC screening] | / (/ indicates that there was no activity at the highest concentration of peptide used (512μg/ml)) | / (/ indicates that there was no activity at the highest concentration of peptide used (512μg/ml)) | / (/ indicates that there was no activity at the highest concentration of peptide used (512μg/ml)) | / (/ indicates that there was no activity at the highest concentration of peptide used (512μg/ml)) | / (/ indicates that there was no activity at the highest concentration of peptide used (512μg/ml)) | / (/ indicates that there was no activity at the highest concentration of peptide used (512μg/ml)) | –
6 | EYLRKVKDAGAGKAKGGGAPGAESKSGKKSGSAETAASGGAKKGKKK [nAMP-LP-98, nematode AMP-like peptide selected for synthesis and MIC screening] | / (/ indicates that there was no activity at the highest concentration of peptide used (512μg/ml)) | / (/ indicates that there was no activity at the highest concentration of peptide used (512μg/ml)) | / (/ indicates that there was no activity at the highest concentration of peptide used (512μg/ml)) | / (/ indicates that there was no activity at the highest concentration of peptide used (512μg/ml)) | / (/ indicates that there was no activity at the highest concentration of peptide used (512μg/ml)) | / (/ indicates that there was no activity at the highest concentration of peptide used (512μg/ml)) | –
7 | QWWGGRGGGRWRGGWRGGWRGRGRGWW [nAMP-LP-104] | – | 256 µg/mL | – | – | – | – | MIC E. faecalis JH2-2 (+) (E. faecalis JH2-2; JH2-2): 256 µg/mL; MIC S. aureus EMRSA-15 (+) (S. aureus EMRSA-15; EMRSA-15): 256 µg/mL
8 | GTFWKAVGAGALIGGGAALLSKAFK[nh2] [nAMP-LP-18, nematode AMP-like peptide identified in four Meloidogyne species] | 64 µg/mL | 64 µg/mL | 64 µg/mL | / (/ indicates that there was no activity at the highest concentration of peptide used (512μg/ml)) | / (/ indicates that there was no activity at the highest concentration of peptide used (512μg/ml)) | / (/ indicates that there was no activity at the highest concentration of peptide used (512μg/ml)) | MIC E. faecalis JH2-2 (+), μM in brackets (E. faecalis JH2-2; microbroth dilution, cation-adjusted MHB, 5x10^5 CFU/ml, 37°C, 18–24 h, visible growth): 27 µM; MIC S. aureus RN4220 (+), μM in brackets (S. aureus RN4220; [2]): 27 µM; MIC S. aureus EMRSA-15 (+), μM in brackets (S. aureus EMRSA-15; Methicillin-resistant, microbroth dilution, cation-adjusted MHB, 5x10^5 CFU/ml, 37°C, 18–24 h, visible growth): 27 µM
9 | AVAHVALKLATSPVGKVALNAMVPGAGTVLGVAAKHHGMVKKLVRV [nAMP-LP-224, nematode AMP-like peptide selected for synthesis and MIC screening] | / (/ indicates that there was no activity at the highest concentration of peptide used (512μg/ml)) | / (/ indicates that there was no activity at the highest concentration of peptide used (512μg/ml)) | / (/ indicates that there was no activity at the highest concentration of peptide used (512μg/ml)) | / (/ indicates that there was no activity at the highest concentration of peptide used (512μg/ml)) | / (/ indicates that there was no activity at the highest concentration of peptide used (512μg/ml)) | / (/ indicates that there was no activity at the highest concentration of peptide used (512μg/ml)) | –
